# According to US20260015341A1, “PI3K INHIBITOR, PREPARATION METHOD THEREFOR, AND USE THEREOF” (HINOVA PHARMACEUTICALS INC., priority 2022, published 2026):
# Tests used:
# [1] = test system: MCF-10A cells; assay: Inhibitory effects on the proliferation of MCF-10A cells (CCK8); assay type: cell-based; details: Homo sapiens, 144 h, 6 days
# Experimental: Experimental Example 2: Experiment of Inhibitory Effects on the Proliferation of MCF-10A Cells
# MCF-10A cells (Cobioer Bio. #CBP60419MCF) were diluted with complete medium (Cobioer Bio. #CBP60419), seeded in 96-well plate (Corning #3599) at 500 cells/well, and then cultured for 24 h. Then, gradiently diluted compounds were added (starting at a final concentration of 10 μM, 3-fold dilution, 9 dose concentrations), and the final volume was adjusted to 100 μL/well. The plate was incubated at 37° C. under 5% CO2 for 6 days. After the cultivation was completed, CCK8 reagent (Signalway Antibody Bio. #CP002) was added at 10 μL/well, and then the plate was further incubated at 37° C. under 5% CO2 for 2-3 hours. The OD450 nm value was obtained by a microplate reader.
# The results are shown in the MCF-OA IC50 column in Table 2.
# [2] = test system: T47D cells; assay: Inhibitory effects on the proliferation of T47D cells (CellTiter-Glo); assay type: cell-based; details: Homo sapiens, 168 h, 7 days
# Experimental: Experimental Example 3: Experiment of Inhibitory Effects on the Proliferation of T47D Cells
# T47D cells (ATCC. #HTB-133) were diluted with RPMI 1640 (Gibco #22400-089) containing 10% FBS (Hyclone #SH30084.03), seeded in 96-well plate (Biosharp #BS-MP-96W) at 1000 cells/well, and then cultured for 24 h. Then, gradiently diluted compounds were added (starting at a final concentration of 10 μM, 3-fold dilution, 9 dose concentrations), and the final volume was adjusted to 150 μL/well. The plate was incubated at 37° C. under […] for 7 days. After the cultivation was completed, CellTiter-Glo reagent (Promega #G7573) was added at 75 μL/well, and then the plate was further incubated at 25° C. for 10 min. After that, the chemiluminescence value was read using an instrument.
# The results are shown in the T47D IC50 column in Table 2.
# [3] = Pharmacokinetics in rats; assay type: in vivo, SD rats; details: rat; for AUC / half-life / clearance / Vd: male, SD, plasma; for Vd: read-out: VSS
# Experimental: Experimental Example 4: The Pharmacokinetics of the Compound According to the Present Invention in Rats
# (§1) 9 healthy adult male SD rats (three for each administration route of each compound) were fasted overnight (>12 h) before gavage, with free access to water; 4 hours after administration, rats could take food, and were administered via tail vein injection and gastric lavage, respectively. At different time points, intravenous blood sample was collected and anti-coagulated, wherein the anticoagulant was EDTA-K2 (the sample was placed in an ice bath after blood collection). The plasma was separated by centrifugation at 4° C. and 6000 g for 5 min, and stored at −70° C. for testing. The plasma concentration of compounds was determined by LC-MS/MS method.
# (§2) The plasma concentration of compound at all time points was used to calculate the main pharmacokinetic parameters with Winnolin 8.3 non-compartmental model.
# (§3) The area under the concentration-time curve AUCall value: calculated using the trapezoidal method; AUCinf=AUCall+Ct/ke, Ct is the plasma concentration at the last measurable time point, and ke is the elimination rate constant;
# The elimination half life t1/2=0.693/ke;
# (§4) The clearance rate CL=D/AUCinf (D is the administration dosage);
# The volume of distribution at steady state Vss=CL×MRT, The mean retention time MRT=AUMC/AUC;
# [4] = Pharmacokinetics in beagle dogs; assay type: in vivo; details: beagle dog
# Experimental: Experimental Example 5: The Pharmacokinetics of the Compound According to the Present Invention in Beagle Dogs
# as §1, with “beagle dogs” for “SD rats”, “forelimb venous” for “intravenous”, “3200” for “4° C. and 6000”, “10” for “5”
# as §2, §3, §4
# The volume of distribution at steady state Vss=CL×MRT. The mean retention time MRT=AUMC/AUC;
# [5] = iv (tail vein injection), 1 mg/kg
# [6] = male, plasma, po, ig (intragastric), 3 mg/kg
# [7] = male, plasma, po, ig (intragastric), 10 mg/kg
IC50 [2],"AUC ([3]; po, ig (intragastric), 3 mg/kg)","half-life ([3]; po, ig (intragastric), 3 mg/kg)","AUC [3, 5]","clearance [3, 5]","half-life [3, 5]","Vd [3, 5]","F ([3]; ig (intragastric), 3 mg/kg)","F ([4]; ig (intragastric), 3 mg/kg)","F ([4]; ig (intragastric), 10 mg/kg)","AUC [4, 6]","half-life [4, 6]","AUC [4, 7]","half-life [4, 7]","AUC ([4]; male, plasma, iv, 1 mg/kg)","clearance ([4]; male, plasma, iv, 1 mg/kg)","half-life ([4]; male, plasma, iv, 1 mg/kg)","Vd ([4]; male, plasma, iv, 1 mg/kg, read-out: VSS)",Compound,IC50 [1]
< 1 µM,3430 ng·h/mL,1.34 h,1000 ng·h/mL,16.3 mL/min/kg,2.95 h,1.71 L/kg,79.6%,27.1%,24.9%,760 ng·h/mL,2.13 h,2370 ng·h/mL,4.19 h,954 ng·h/mL,17.4 mL/min/kg,2.1 h,0.828 L/kg,Cc1cc([C@@H](C)Nc2ccc(Cl)nc2C(=O)O)c2nc(-c3ccc(F)cc3)n(C)c(=O)c2c1 [Compound 65],> 5 µM
> 5 µM,2360 ng·h/mL,3.83 h,978 ng·h/mL,17.5 mL/min/kg,3.79 h,2.14 L/kg,80.3%,–,–,–,–,–,–,–,–,–,–,Cc1cc([C@@H](C)Nc2ccc(Cl)nc2C(=O)O)c2nc(-c3ccccc3)n(C)c(=O)c2c1 [Compound 115],> 5 µM
